Data as given in PubChem BioAssay (NCI).
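In this assay, cells in 96-well plates receive the compound at five concentrations for 48 hours. Endpoints are linearly interpolated between the surrounding concentrations. At the GI50, growth is halved. The concentration for full growth arrest is given as TGI.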

Assays:
Experiment in all cases: NCI tumour cell line growth inhibition, 48 h
[1] = tested on: NCI-H226 lung
[2] = tested on: NCI-H23 lung
[3] = tested on: NCI-H460 lung
[4] = tested on: NCI-H522 lung
[5] = tested on: NCI/ADR-RES ovarian
[6] = tested on: OVCAR-3 ovarian
[7] = tested on: OVCAR-4 ovarian
[8] = tested on: OVCAR-5 ovarian
[9] = tested on: OVCAR-8 ovarian
[10] = tested on: PC-3 prostate
[11] = tested on: RPMI-8226 leukemia
[12] = tested on: RXF 393 renal
[13] = tested on: SF-268 CNS
[14] = tested on: SF-295 CNS
[15] = tested on: SF-539 CNS
[16] = tested on: SK-MEL-2 melanoma
[17] = tested on: SK-MEL-28 melanoma
[18] = tested on: SK-MEL-5 melanoma
[19] = tested on: SK-OV-3 ovarian
[20] = tested on: SNB-19 CNS
[21] = tested on: SNB-75 CNS
[22] = tested on: SR leukemia
[23] = tested on: SW-620 colon
[24] = tested on: T-47D breast
[25] = tested on: TK-10 renal
[26] = tested on: U251 CNS
[27] = tested on: UACC-257 melanoma
[28] = tested on: UACC-62 melanoma
[29] = tested on: UO-31 renal

For `COc1ccccc1CNCCCN1C(=O)c2ccc3c4c(ccc(c24)C1=O)C(=O)N(CCCNCCCCN)C3=O`, the TGI [1] was 2550 nM, the GI50 [2] was 222 nM and the TGI [2] was 595 nM. It also gave a GI50 [3] of 313 nM, a TGI [3] of 1000 nM and a GI50 [4] of 182 nM. The TGI [4] was 367 nM, the GI50 [5] was 3.58 µM and the TGI [5] was 22.8 µM. For the same compound, the GI50 [6] was 304 nM, the TGI [6] was 810 nM and the GI50 [7] was 165 nM. For the same compound, the TGI [7] was 319 nM, the GI50 [8] was 1060 nM and the TGI [8] was 7.97 µM. For the same compound, the GI50 [9] was 244 nM, the TGI [9] was 933 nM and the GI50 [10] was 307 nM. The TGI [10] was 2350 nM, the GI50 [11] was 445 nM and the TGI [11] was 6.13 µM. The GI50 [12] was 340 nM, the TGI [12] was 1410 nM and the GI50 [13] was 290 nM. The TGI [13] was 1680 nM, the GI50 [14] was 678 nM and the TGI [14] was 2790 nM. It also gave a GI50 [15] of 296 nM, a TGI [15] of 818 nM and a GI50 [16] of 233 nM. It also gave a TGI [16] of 490 nM, a GI50 [17] of 425 nM and a TGI [17] of 1540 nM. The GI50 [18] was 164 nM, the TGI [18] was 303 nM and the GI50 [19] was 495 nM. For the same compound, the TGI [19] was 2860 nM, the GI50 [20] was 510 nM and the TGI [20] was 2580 nM. The GI50 [21] was 344 nM, the TGI [21] was 1670 nM and the GI50 [22] was 92.8 nM. The TGI [22] was 820 nM, the GI50 [23] was 161 nM and the TGI [23] was 858 nM. For the same compound, the GI50 [24] was 573 nM, the TGI [24] was 2400 nM and the GI50 [25] was 976 nM. For the same compound, the TGI [25] was 4.63 µM, the GI50 [26] was 206 nM and the TGI [26] was 731 nM. It also gave a GI50 [27] of 166 nM, a TGI [27] of 317 nM and a GI50 [28] of 237 nM. It also gave a TGI [28] of 674 nM, a GI50 [29] of 1950 nM and a TGI [29] of 9.92 µM.
